Results on 21 compounds are retold here after US8586739B2, “Heterocyclic compounds and their uses” (Amgen Inc., priority 2007, dated 2013).

One experiment deals with p110δ. The settings on record: cited from earlier work.
Another experiment deals with protein kinases. The settings on record: cited from earlier work.
The test system of a further experiment is murine model of asthma. To be noted: ovalbumin-induced airway inflammation; cited from earlier work.
A further experiment concerns the target T1, PI3Kδ (Homo sapiens, UniProt O00329).
T1 construct: Full length p110 subunits of PI3k α, β and δ, N-terminally labeled with polyHis tag; polyHis (N); made in house; host or cells: Sf9 insect cells (baculovirus)
The experiment is described as follows: In vitro enzyme assay of recombinant PI3K (residual ATP bioluminescence). Format: biochemical. How it is done:
Recombinant Expression of PI3Ks
Full length p110 subunits of PI3k α, β and δ, N-terminally labeled with polyHis tag, were coexpressed with p85 with Baculo virus expression vectors in sf9 insect cells. P110/p85 heterodimers were purified by sequential Ni-NTA, Q-HP, Superdex-100 chromatography. Purified α, β and δ isozymes were stored at −20° C. in 20 mM Tris, pH 8, 0.2M NaCl, 50% glycerol, 5 mM DTT, 2 mM Na cholate. Truncated PI3Kγ, residues 114-1102, N-terminally labeled with polyHis tag, was expessed with Baculo virus in Hi5 insect cells. The γ isozyme was purified by sequential Ni-NTA, Superdex-200, Q-HP chromatography. The γ isozyme was stored frozen at −80° C. in NaH2PO4, pH 8, 0.2M NaCl, 1% ethylene glycol, 2 mM β-mercaptoethanol.
Assays were performed in 25 μL with the above final concentrations of components in white polyproplyene plates (Costar 3355). Phospatidyl inositol phosphoacceptor, PtdIns(4,5)P2 P4508, was from Echelon Biosciences. The ATPase activity of the alpha and gamma isozymes was not greatly stimulated by PtdIns(4,5)P2 under these conditions and was therefore omitted from the assay of these isozymes. Test compounds were dissolved in dimethyl sulfoxide and diluted with three-fold serial dilutions. The compound in DMSO (1 μL) was added per test well, and the inhibition relative to reactions containing no compound, with and without enzyme was determined. After assay incubation at room temperature, the reaction was stopped and residual ATP determined by addition of an equal volume of a commercial ATP bioluminescence kit (Perkin Elmer EasyLite) according to the manufacturer's instructions, and detected using a AnalystGT luminometer.

The test system of another experiment is P110β. To be noted: cited from earlier work.
Experiment [1] concerns mouse model of rheumatoid arthritis. The settings on record: in vivo; cited from earlier work.
The subject of experiment [2] is model of systemic lupus erythematosis. The settings on record: in vivo; cited from earlier work.

T1 sequence (O00329 whole entry): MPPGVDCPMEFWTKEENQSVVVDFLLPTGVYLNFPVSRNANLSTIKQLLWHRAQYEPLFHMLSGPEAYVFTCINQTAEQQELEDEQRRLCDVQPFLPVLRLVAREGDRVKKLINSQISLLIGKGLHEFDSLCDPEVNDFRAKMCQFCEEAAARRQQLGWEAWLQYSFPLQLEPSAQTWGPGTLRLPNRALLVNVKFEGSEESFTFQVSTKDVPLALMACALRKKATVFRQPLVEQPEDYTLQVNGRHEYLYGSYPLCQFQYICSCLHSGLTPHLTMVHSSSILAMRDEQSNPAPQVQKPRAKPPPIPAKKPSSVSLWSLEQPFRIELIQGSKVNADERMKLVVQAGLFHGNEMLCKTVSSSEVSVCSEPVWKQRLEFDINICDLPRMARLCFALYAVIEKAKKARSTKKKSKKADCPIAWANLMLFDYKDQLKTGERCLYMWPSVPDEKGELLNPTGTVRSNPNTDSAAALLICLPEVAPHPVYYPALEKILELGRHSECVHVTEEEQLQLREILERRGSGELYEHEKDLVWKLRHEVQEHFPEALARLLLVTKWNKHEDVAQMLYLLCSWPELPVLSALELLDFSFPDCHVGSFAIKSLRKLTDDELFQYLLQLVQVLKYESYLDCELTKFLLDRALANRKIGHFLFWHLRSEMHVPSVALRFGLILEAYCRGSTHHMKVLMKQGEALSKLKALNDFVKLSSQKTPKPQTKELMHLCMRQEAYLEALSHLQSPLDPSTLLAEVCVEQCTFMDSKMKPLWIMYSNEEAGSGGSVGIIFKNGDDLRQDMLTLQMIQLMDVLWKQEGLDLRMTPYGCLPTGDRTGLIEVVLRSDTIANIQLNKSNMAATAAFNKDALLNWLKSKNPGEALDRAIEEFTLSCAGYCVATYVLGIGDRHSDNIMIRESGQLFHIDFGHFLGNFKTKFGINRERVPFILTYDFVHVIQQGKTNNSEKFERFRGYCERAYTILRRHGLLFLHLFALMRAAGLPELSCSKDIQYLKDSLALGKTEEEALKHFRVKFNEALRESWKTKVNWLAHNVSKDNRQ
T1 sequence (P27986 whole entry partner): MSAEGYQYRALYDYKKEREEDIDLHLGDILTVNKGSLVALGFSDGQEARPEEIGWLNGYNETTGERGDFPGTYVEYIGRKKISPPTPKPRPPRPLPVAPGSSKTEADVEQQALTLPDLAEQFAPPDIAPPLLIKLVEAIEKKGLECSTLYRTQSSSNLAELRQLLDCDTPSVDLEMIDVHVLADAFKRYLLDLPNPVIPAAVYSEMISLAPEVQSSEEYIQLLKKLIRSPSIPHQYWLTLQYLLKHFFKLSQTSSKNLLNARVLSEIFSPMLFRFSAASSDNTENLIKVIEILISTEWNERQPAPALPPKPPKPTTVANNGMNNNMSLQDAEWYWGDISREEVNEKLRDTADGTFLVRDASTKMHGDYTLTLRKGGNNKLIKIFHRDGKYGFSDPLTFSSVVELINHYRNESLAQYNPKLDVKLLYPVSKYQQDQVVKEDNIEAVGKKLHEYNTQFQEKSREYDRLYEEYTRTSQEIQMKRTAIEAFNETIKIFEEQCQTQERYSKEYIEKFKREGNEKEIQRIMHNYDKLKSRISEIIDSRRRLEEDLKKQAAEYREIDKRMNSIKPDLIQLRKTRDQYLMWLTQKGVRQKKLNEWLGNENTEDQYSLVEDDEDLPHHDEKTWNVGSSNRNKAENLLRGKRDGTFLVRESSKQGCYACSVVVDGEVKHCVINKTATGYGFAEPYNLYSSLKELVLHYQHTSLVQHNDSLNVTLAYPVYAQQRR

Regarding `Cc1ccccc1-n1c(Cn2cnc3c(N)ncnc32)nc2cccc(C)c2c1=O` [IC87114], the “inhibits p110δ” value in the experiment on p110δ is “high nanomolar range (triple digit)”. Besides, the “activity against any protein kinases tested” value in the experiment with protein kinases is given as “no activity”. For the same compound, in the experiment on murine model of asthma, the “inflammation and disease in a murine model of asthma” value was “significantly ameliorate inflammation and disease”.
Take `Cc1cccc2cc(COc3ncnc4[nH]ccc34)c(-c3ccccc3)nc12` [Example 15, 3-((7H-Pyrrolo[2,3-d]pyrimidin-4-yloxy)methyl)-8-methyl-2-phenylquinoline]: the IC50 at PI3Kδ is 0.068 µM.
For `Cc1cccc2nc(CNc3ncnc4[nH]cnc34)c(-c3ccccc3Cl)nc12` [Example 19, N-((3-(2-Chlorophenyl)-5-methylquinoxalin-2-yl)methyl)-9H-purin-6-amine], at PI3Kδ, the IC50 was 0.066 µM.
For the compound `Cc1ccccc1-c1nc2c(C)cccc2cc1CSc1ncnc2[nH]cnc12` [Example 12, 3-((9H-Purin-6-ylthio)methyl)-8-methyl-2-o-tolylquinoline], the IC50 at PI3Kδ turned out to be 0.889 µM.
In the case of `Cc1cc(C(C)Nc2ccccc2)c2nc(N3CCOCC3)cc(=O)n2c1` (stereo not drawn) [TGX-221], the selective over alpha entry in the experiment with P110β (beta versus alpha) is given as “more than 500 fold”. For the same compound, in the experiment on P110β (beta versus delta), the selective over delta is on record as 14 fold. In addition, in the experiment with P110β (beta versus gamma), the selective over gamma result is on record as “more than 500 fold”. For the same compound, the IC50 in the experiment on P110β (read-out: potency on beta) was 0.007 µM.
Consider `Clc1nc(NCc2cc3cccc(Cl)c3nc2-c2ccccc2Cl)c2nc[nH]c2n1` [Example 3, 2-Chloro-N-((8-chloro-2-(2-chlorophenyl)quinolin-3-yl)methyl)-9H-purin-6-amine], for which, at PI3Kδ, the IC50 came to 0.615 µM.
For the compound `Clc1ccccc1-c1nc2c(Cl)cccc2cc1CNc1ncnc2[nH]cnc12` [Example 2, N-((8-Chloro-2-(2-chlorophenyl)quinolin-3-yl)-methyl)-9H-purin-6-amine], on PI3Kδ, the IC50 worked out at 0.068 µM.
For `Cc1cccc2cc(CNc3ncnc4[nH]cnc34)c(-c3ccccc3C(F)(F)F)nc12` [Example 16, N-((8-Methyl-2-(2-(trifluoromethyl)phenyl)quinolin-3-yl)methyl)-9H-purin-6-amine], the IC50 at PI3Kδ is 0.091 µM.
Same read-out and setting: the value for `Cc1ccccc1-c1nc2c(C)cccc2cc1CNc1ncnc2[nH]cnc12` [Example 1, N-((8-Methyl-2-o-tolylquinolin-3-yl)methyl)-9H-purin-6-amine] was 0.084 µM.
On to `Fc1cccc(-c2nc3c(Cl)cccc3cc2CNc2ncnc3[nH]cnc23)c1` [Example 31, N-((8-Chloro-2-(3-fluorophenyl)quinolin-3-yl)methyl)-9H-purin-6-amine], for which the IC50 at PI3Kδ came out at 0.074 µM.
The same measure, in the same setting: the value for `CS(=O)(=O)c1ccccc1-c1nc2c(Cl)cccc2cc1CNc1ncnc2[nH]cnc12` [Example 35, N-((8-chloro-2-(2-(methylsulfonyl)phenyl)quinolin-3-yl)methyl)-9H-purin-6-amine] was 0.222 µM.
Regarding `O=C1NC(=O)/C(=C\c2ccc3nccnc3c2)S1` [AS 605240], the “efficacy in a mouse model of rheumatoid arthritis” value in experiment [1] is listed as “efficacious”. Moreover, in experiment [2], the “onset of disease in a model of systemic lupus erythematosis” value was “delay onset of disease”.
As for `C=CCC(Oc1ncnc2[nH]ccc12)c1cc2cccc(C)c2nc1-c1ccccc1Cl` (stereo not drawn) [Example 9, 3-(1-(7H-Pyrrolo[2,3-d]pyrimidin-4-yloxy)but-3-enyl)-2-(2-chlorophenyl)-8-methylquinoline], the IC50 on PI3Kδ stood at 0.028 µM.
With `Fc1ccc2nc(-c3ccccc3Cl)c(CNc3ncnc4[nH]cnc34)cc2c1` [Example 37, N-((2-(2-Chlorophenyl)-6-fluoroquinolin-3-yl)methyl)-9H-purin-6-amine], at PI3Kδ, the IC50 turned out to be 1.68 µM.
For the compound `C[C@H](Nc1ncnc2[nH]cnc12)c1cc2cccc(Cl)c2nc1-c1cccc(F)c1` [N-((S)-1-(8-Chloro-2-(3-fluorophenyl)quinolin-3-yl)ethyl)-9H-purin-6-amine], the IC50 on PI3Kδ was determined as 0.006 µM.
Consider `Cc1cccc2cc(COc3ncnc4[nH]cnc34)c(-c3ccccc3Cl)nc12` [Example 10, 3-((9H-Purin-6-yloxy)methyl)-2-(2-chlorophenyl)-8-methylquinoline], for which the IC50 at PI3Kδ was found to be 0.025 µM.
Still for that read-out and setting: in the case of `COc1nc(NCc2cc3cccc(Cl)c3nc2-c2ccccc2Cl)c2cc[nH]c2n1` [Example 4, N-((8-Chloro-2-(2-chlorophenyl)quinolin-3-yl)methyl)-2-meth-oxy-7H-pyrrolo[2,3-d]pyrimidin-4-amine] it was 5.42 µM; in that of `Cc1ccccc1-c1nc2c(C)cccc2cc1C(C)Oc1ncnc2[nH]cnc12` (stereo not drawn) [Example 5, 3-(1-(9H-Purin-6-yloxy)ethyl)-8-methyl-2-o-tolylquinoline], 0.012 µM.
With `Fc1cc2cc(CNc3ncnc4[nH]cnc34)c(-c3ccccc3Cl)nc2cc1F` [Example 38, N-((2-(2-Chlorophenyl)-6,7-difluoroquinolin-3-yl)methyl)-9H-purin-6-amine], at PI3Kδ, the IC50 was 0.551 µM.
Take `C[C@H](Nc1ncnc2[nH]cnc12)c1cc2cccc(Cl)c2nc1-c1cscn1` [Example 44, N-((S)-1-(8-Chloro-2-(thiazol-4-yl)quinolin-3-yl)ethyl)-9H-purin-6-amine]: the IC50 on PI3Kδ worked out at 0.016 µM.
On to `Cc1ccccc1-c1nc2c(C)cccc2cc1COc1ncnc2[nH]ccc12` [Example 14], for which, at PI3Kδ, the IC50 was 0.056 µM.
